{
  "source": "paper PMC7297817",
  "about": "“Pharmacological Characterization of a Betaine/GABA Transporter 1 (BGT1) Inhibitor Displaying an Unusual Biphasic Inhibition Profile and Anti-seizure Effects” (Neurochemical Research, 2020)",
  "key": {"CF-1 mice": {"test_system": "CF-1 mice", "assay": "s.c.PTZ seizure threshold test", "assay_type": "in vivo, mouse", "conditions": "150 mg/kg i.p.", "text": "Male audiogenic-susceptible (AGS) Frings mice were obtained from an in-house breeding facility at the University of Utah (Salt Lake City, UT, USA). Male CF-1 mice for the maximal electroshock (MES) test and the subcutaneous pentylenetetrazol (s.c.PTZ) seizure threshold test were purchased from Charles River (Kingston, WA, USA). All mice were housed in a temperature, humidity, and light (on at 6:00 AM) controlled facility at the University of Utah with access to ad libitum food and water except during testing. All procedures were carried out at the University of Utah in concordance with the National Institutes of Health Guidelines for the Care and Use of Laboratory Animals and under approval from the University of Utah’s Institutional Animal Care and Use Committee. The mice were euthanized in accordance with Public Health Service policies on the humane care of laboratory animals. SBV2-114 was tested for its ability to prevent a minimal clonic seizure in the s.c.PTZ seizure test, which is a test of generalized myoclonic seizures. […] At the TPE, mice were challenged with a s.c. dose of PTZ (85 mg/kg) and observed for 30 min for the presence or absence of a minimal clonic seizure characterized by minimal forelimb clonus and/or vibrissae twitching. Mice not displaying this phenotypic behaviour were considered protected."}, "D5": {"biological_target": "T1, D5 (Homo sapiens, UniProt P21918)", "T1 construct": "NIMH PDSP (screening service)", "assay": "NIMH PDSP radioligand binding, D5", "conditions": "radioligand [3H]SCH23390"}, "5-HT5A": {"biological_target": "T2, 5-HT5A (Homo sapiens, UniProt P47898)", "T2 construct": "purchased NIMH Psychoactive Drug Screening Program (PDSP)", "assay": "NIMH PDSP radioligand binding, 5-HT5A", "conditions": "radioligand [3H]LSD, n=4"}, "hBGT1": {"biological_target": "T3, hBGT1 (Homo sapiens, UniProt P48065)", "T3 construct": "expressed in transfected cells; host or cells: tsA201 (transient)", "T3 sequence (P48065 1-614)": "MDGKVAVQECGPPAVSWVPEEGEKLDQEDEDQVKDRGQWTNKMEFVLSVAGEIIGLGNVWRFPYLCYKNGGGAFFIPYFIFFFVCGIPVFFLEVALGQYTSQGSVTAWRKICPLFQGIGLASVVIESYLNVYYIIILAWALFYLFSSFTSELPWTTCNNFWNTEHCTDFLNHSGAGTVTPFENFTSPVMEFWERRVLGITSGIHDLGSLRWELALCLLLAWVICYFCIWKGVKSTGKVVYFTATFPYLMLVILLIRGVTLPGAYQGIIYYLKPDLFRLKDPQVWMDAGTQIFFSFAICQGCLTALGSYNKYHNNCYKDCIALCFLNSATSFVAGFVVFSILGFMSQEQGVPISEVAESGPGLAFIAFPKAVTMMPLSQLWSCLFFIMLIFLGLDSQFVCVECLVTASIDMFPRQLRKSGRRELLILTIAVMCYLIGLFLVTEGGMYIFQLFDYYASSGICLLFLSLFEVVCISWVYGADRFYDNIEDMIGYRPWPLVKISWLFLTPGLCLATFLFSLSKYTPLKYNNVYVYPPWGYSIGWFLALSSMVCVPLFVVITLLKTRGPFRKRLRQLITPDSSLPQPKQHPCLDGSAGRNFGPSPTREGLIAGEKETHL", "assay": "[3H]GABA uptake at hBGT1 transiently expressed in tsA201 cells", "assay_type": "cell-based", "description": "The tsA201 cell line was used for transient expression while the MDCK II cell line express BGT1 endogenously. Both cell lines were cultured as described. tsA201 cells were transfected with DNA constructs (8 μg per 10 cm dish if not otherwise mentioned) using 40 μL PolyFect transfection reagent according to the manufacturer’s protocol (Qiagen, Venlo, Netherlands). The DNA constructs encoding hBGT1, hGAT1-3 [36], the mutated constructs hBGT1 Q299 and hGAT3 L314Q described previously, and hBGT Y453A were synthesized and sequence validated by Genscript (NJ, USA).\nThe [^3H]GABA competition uptake assay was performed as previously described. […] Studies related to the inhibition curves with GABA and BPDBA at hBGT1 were obtained both with and without the presence of 10 μM ATP during the [^3H]GABA uptake assay.\nAll compounds, except BAPTA/AM, were also present at the same concentration during the course of the actual [^3H]GABA uptake assay.\nThe [^3H]GABA uptake data was normalized to the percentage of total uptake in the individual experiments in the presence of the lowest compound concentration or no compound present. Data presented is the pooled data of at least three independent experiments with three technical replicates. Concentration–response curves (CRCs) were fitted with GraphPad Prism (version 8.2.1, Yosemite, GraphPad Software, San Diego, CA, USA) by non-linear regression to the sigmoidal concentration response model: Y=Bottom+(Top-Bottom)/1+10^LogIC50-X∗nH where Top is the Top plateau, Bottom is the Bottom plateau, X is the logarithm of the concentration of the compound, LogIC50 is the concentration giving a response halfway between Top and Bottom,and nH is the Hill slope.\nThe best fit for CRCs obtained with the [^3H]GABA uptake assay was identified by the extra-sum-of-squares F test (for convenience referred to as F test)."}, "Beta1": {"biological_target": "T4, Beta1 (Homo sapiens, UniProt P08588)", "T4 construct": "purchased NIMH Psychoactive Drug Screening Program (PDSP)", "T4 sequence (P08588 whole entry)": "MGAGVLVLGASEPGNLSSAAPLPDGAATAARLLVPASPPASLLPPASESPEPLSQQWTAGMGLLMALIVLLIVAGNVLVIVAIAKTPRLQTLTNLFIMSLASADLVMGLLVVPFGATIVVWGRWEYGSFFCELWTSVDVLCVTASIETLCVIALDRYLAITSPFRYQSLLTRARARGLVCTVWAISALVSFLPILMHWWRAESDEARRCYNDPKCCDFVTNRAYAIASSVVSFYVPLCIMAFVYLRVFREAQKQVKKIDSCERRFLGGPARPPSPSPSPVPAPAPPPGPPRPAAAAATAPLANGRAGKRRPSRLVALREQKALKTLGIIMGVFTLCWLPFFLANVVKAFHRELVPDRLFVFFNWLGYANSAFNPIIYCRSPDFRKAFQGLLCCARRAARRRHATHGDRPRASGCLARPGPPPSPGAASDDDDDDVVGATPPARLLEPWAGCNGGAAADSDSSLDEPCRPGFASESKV", "assay": "NIMH PDSP radioligand binding, Beta1", "conditions": "radioligand [125I]pindolol, n=4"}, "[1]": {"conditions": "30 min pre-incubation with 25 μM BAPTA/AM"}, "[2]": {"conditions": "control: 30 min pre-incubation in assay buffer"}},
  "note": "pIC50, pKi: −log10 of the molar value. “And” between values parts separate entries of the source, which are not always exact repeats. Identical values can stand only once. Like-named read-outs stand apart in the source and are kept apart here.",
  "data": [
    {"smiles": "Cc1ccsc1C(=CCCN(C)[C@H]1CCCC[C@H]1C(=O)O)c1sccc1C", "note": "[SBV2-114, (1R,2S)-2-((4,4-bis(3-methylthiophen-2-yl)but-3-en-yl)(methyl)amino)cyclohexanecarboxylic acid]", "values": [
      {"measurement": "effect on s.c.PTZ-induced seizures", "setting": "CF-1 mice", "result": "did not block s.c.PTZ-induced seizures"},
      {"measurement": "#Protected/#Tested", "setting": "CF-1 mice; 30 min, PTZ 85 mg/kg s.c.", "result": "0/8"},
      {"measurement": "inhibition at 10 µM", "setting": "D5; 10 μM, n=4", "result": 51.7, "unit": "%"},
      {"measurement": "pKi", "setting": "D5; full curve, printed with 'ave'", "result": 5.00},
      {"measurement": "inhibition at 10 µM", "setting": "5-HT5A", "result": 36.6, "unit": "%"},
      {"measurement": "inhibition profile (mono-/biphasic)", "setting": "hBGT1; 30 nM [3H]GABA, 3 min, F test", "result": "biphasic"},
      {"measurement": "Frac", "setting": "hBGT1; 2 μg cDNA (n=2)", "result": 0.44},
      {"measurement": "nH1", "setting": "hBGT1; 2 μg cDNA (n=2)", "result": -0.86},
      {"measurement": "nH2", "setting": "hBGT1; 2 μg cDNA (n=2)", "result": -1.75},
      {"measurement": "Frac", "setting": "hBGT1; 4 μg cDNA (n=2)", "result": 0.32},
      {"measurement": "nH1", "setting": "hBGT1; 4 μg cDNA (n=2)", "result": -1.31},
      {"measurement": "nH2", "setting": "hBGT1; 4 μg cDNA (n=2)", "result": 1.62},
      {"measurement": "Frac", "setting": "hBGT1; [1]", "result": 0.15},
      {"measurement": "nH1", "setting": "hBGT1; [1]", "result": -2.02},
      {"measurement": "preferred curve fitting", "setting": "hBGT1; 30 min pre-incubation with and presence of 1 μM A 804598", "result": "biphasic fit"},
      {"measurement": "preferred curve fitting", "setting": "hBGT1; 30 min pre-incubation with and presence of 5 μM U-73122", "result": "biphasic fit"},
      {"measurement": "pIC50", "setting": "hBGT1; IC50, high affinity component (low IC50), biphasic fit, 30 nM [3H]GABA, 3 min, tsA201, 8 μg cDNA", "result": 5.33},
      {"measurement": "pIC50", "setting": "hBGT1; IC50, high affinity component, 30 min pre-incubation with 25 μM BAPTA/AM", "result": 5.28},
      {"measurement": "pIC50", "setting": "hBGT1; IC50, high affinity component, control: 30 min pre-incubation at 37 °C in assay buffer", "result": 5.21},
      {"measurement": "% inhibition (Frac value) at the low IC50", "setting": "hBGT1; biphasic fit", "result": 42, "unit": "%"},
      {"measurement": "Frac", "setting": "hBGT1; cells pre-incubated for 10 min with SBV2-114 prior to uptake", "result": 0.34},
      {"measurement": "Frac", "setting": "hBGT1; [2]", "result": 0.21},
      {"measurement": "nH1", "setting": "hBGT1; [2]", "result": -0.76},
      {"measurement": "nH2", "setting": "hBGT1; [2]", "result": -2.05},
      {"measurement": "pIC50", "setting": "hBGT1; pIC50 ± S.E.M., high affinity component, 2 μg cDNA (n=2), biphasic fit", "result": 5.47},
      {"measurement": "pIC50", "setting": "hBGT1; pIC50 ± S.E.M., high affinity component, 4 μg cDNA (n=2), biphasic fit", "result": 5.66},
      {"measurement": "pIC50", "setting": "hBGT1; pIC50 ± S.E.M., high affinity component, biphasic fit, 30 nM [3H]GABA, 3 min, tsA201, 8 μg cDNA", "result": 5.28},
      {"measurement": "Frac", "setting": "hBGT1; proportion of maximal response due to the more potent phase, 8 μg cDNA", "result": 0.42},
      {"measurement": "pIC50", "setting": "hBGT1; read-out: IC50, low affinity component (high IC50), biphasic fit, 30 nM [3H]GABA, 3 min, tsA201, 8 μg cDNA", "result": "3.25 and 3.26"},
      {"measurement": "pIC50", "setting": "hBGT1; read-out: IC50, low affinity component, 2 μg cDNA (n=2), biphasic fit", "result": 3.29},
      {"measurement": "pIC50", "setting": "hBGT1; read-out: IC50, low affinity component, 4 μg cDNA (n=2), biphasic fit", "result": 3.29},
      {"measurement": "pIC50", "setting": "hBGT1; read-out: IC50, low affinity component, 30 min pre-incubation with 25 μM BAPTA/AM", "result": 3.29},
      {"measurement": "pIC50", "setting": "hBGT1; read-out: IC50, low affinity component, control: 30 min pre-incubation at 37 °C in assay buffer", "result": 3.29},
      {"measurement": "inhibition at 10 µM", "setting": "Beta1", "result": 37.9, "unit": "%"}
    ]}
  ]
}
